Results taken from patent US8603550B1, “Compositions for topical treatment” (priority 2013, dated 2013).

Key:
[1] = system: Staphylococcus aureus ATCC 33592 (MRSA); assay: Zone of inhibition test (agar well); format: cell-based; conditions: S. aureus ATCC 33592 (methicillin resistant); 7 mm well, 37° C., 24 hours
Method: (§1) An overnight culture of the test organism is diluted to 0.40 OD at 600 nm and then further diluted 10^−2 to obtain approximately 3×10^6 CFU/ml for the inoculation of TSA or SDA plates as follows: a 0.5 ml volume is spread across the surface of a sterile agar plate and allowed to dry. A 7 mm well is made in the center of the agar plate and approximately 0.2 ml of product is pipetted into the well. Additionally, Finipil is tested against S. aureus. The plates are incubated at 37° C. for 24 hours and the zones of inhibition are determined by measuring the diameter of the clear circular area around the product filled well.
(§2) *Becton Dickinson BBL Cefoxitin 30 microgram Sensi-Disk® sensitivity disks will be used to indicate susceptibility to Methicillin

[2] = system: Staphylococcus aureus ATCC 6538 (MSSA); assay: Zone of inhibition test (agar well); format: cell-based; conditions: S. aureus ATCC 6538; 7 mm well, about 0.2 ml product, 37° C., 24 hours
Method: as §1, §2

CO[C@@]1(NC(=O)Cc2cccs2)C(=O)N2C(C(=O)O)=C(COC(N)=O)CS[C@@H]21 [Cefoxitin disk, Cefoxitin]
Zone of inhibition (diameter) [1]: 10 mm
Zone of inhibition (diameter) [2]: 33 mm
